From US20260356860A1, “2-SUBSTITUTED 3,4A,5,7,8,8A-HEXAHYDRO-4H-THIOPYRANO[4,3-DJPYRIMIDIN-4-ONES FOR WOUND TREATMENT” (priority 2022, published 2026)

Experiments:
Test in all cases: Bacteriostasis, log reduction
Format in all cases: cell-based
[1] = system: E. coli (derived from ATCC ® 25922 ™); settings: E. coli ATCC 25922
[2] = system: E. coli 0157:H7 (derived from ATCC ® 12900 ™); settings: E. coli 0157:H7 ATCC 12900
[3] = system: E. faecalis (derived from ATCC ® 19433 ™); settings: E. faecalis ATCC 19433
[4] = system: K. pneumoniae (derived from ATCC ® 10031 ™); settings: K. pneumoniae ATCC 10031
[5] = system: P. aeruginosa (derived from ATCC ® 15442 ™); settings: P. aeruginosa ATCC 15442
[6] = system: P. aeruginosa (derived from ATCC ® 9027 ™); settings: P. aeruginosa ATCC 9027
[7] = system: P. vulgaris (derived from ATCC ® 8427 ™); settings: P. vulgaris ATCC 8427
[8] = system: S. aureus (MRSA) (derived from ATCC ® 33593 ™); settings: for Average result / Log Reduction / Log Value: S. aureus (MRSA) ATCC 33593
[9] = system: S. aureus (derived from ATCC ® 6538 ™); settings: S. aureus ATCC 6538
[10] = system: S. maltophilia (derived from ATCC ® 13637 ™); settings: S. maltophilia ATCC 13637
[11] = system: S. pyogenes (derived from ATCC ® 19615 ™); settings: S. pyogenes ATCC 19615

## O=c1[nH]c(-c2ccc(-c3ccc(B(O)O)cc3)cc2)nc2c1CSCC2 [Compound 10, (4′-(4-oxo-3,5,7,8-tetrahydro-4H-thiopyrano[4,3-d]pyrimidin-2-yl)-[1,1′-biphenyl]-4-yl)boronic acid]
[1]; 24 h
  Average result: <200
  Log Reduction: >3.1
  Log Value: <2.3
[1]; 72 h
  Average result: <200
  Log Reduction: >3.1
  Log Value: <2.3
[2]; 24 h
  Average result: <200
  Log Reduction: >1.9
  Log Value: <2.3
[2]; 72 h
  Average result: <200
  Log Reduction: >1.9
  Log Value: <2.3
[3]; 24 h
  Average result: 2.9 × 10^4
  Log Reduction: 0.3
  Log Value: 4.5
[3]; 72 h
  Average result: <200
  Log Reduction: >2.5
  Log Value: <2.3
[4]; 24 h
  Average result: <200
  Log Reduction: >2.5
  Log Value: <2.3
[4]; 72 h
  Average result: <200
  Log Reduction: >2.5
  Log Value: <2.3
[5]; 24 h
  Average result: <200
  Log Reduction: >3.1
  Log Value: <2.3
[5]; 72 h
  Average result: <200
  Log Reduction: >3.1
  Log Value: <2.3
[6]; 24 h
  Average result: <200
  Log Reduction: >3.0
  Log Value: <2.3
[6]; 72 h
  Average result: <200
  Log Reduction: >3.0
  Log Value: <2.3
[7]; 24 h
  Average result: <200
  Log Reduction: >3.6
  Log Value: <2.3
[7]; 72 h
  Average result: <200
  Log Reduction: >3.6
  Log Value: <2.3
[8]; 24 h
  Average result: 3.1 × 10^4
  Log Reduction: 0.1
  Log Value: 4.5
[8]; 72 h
  Average result: 2.7 × 10^3
  Log Reduction: 1.2
  Log Value: 3.4
[9]; 24 h
  Average result: 1.5 × 10^5
  Log Reduction: 0.1
  Log Value: 5.2
[9]; 72 h
  Average result: 6.7 × 10^3
  Log Reduction: 1.5
  Log Value: 3.8
[10]; 24 h
  Average result: <200
  Log Reduction: >2.8
  Log Value: <2.3
[10]; 72 h
  Average result: <200
  Log Reduction: >2.8
  Log Value: <2.3
[11]; 24 h
  Average result: <200
  Log Reduction: >3.2
  Log Value: <2.3
[11]; 72 h
  Average result: <200
  Log Reduction: >3.2
  Log Value: <2.3

## COC(=O)NCCOC(C)(C)c1ccc(-c2nc3c(c(=O)[nH]2)CSCC3)cc1 [Compound 18, methyl (2-((2-(4-(4-oxo-3,5,7,8-tetrahydro-4H-thiopyrano[4,3-d]pyrimidin-2-yl)phenyl)propan-2-yl)oxy)ethyl)carbamate]
[1]; 24 h
  Average result: <200
  Log Reduction: >2.3
  Log Value: <2.3
[1]; 72 h
  Average result: <200
  Log Reduction: >2.3
  Log Value: <2.3
[2]; 24 h
  Average result: <200
  Log Reduction: >1.9
  Log Value: <2.3
[2]; 72 h
  Average result: <200
  Log Reduction: >1.9
  Log Value: <2.3
[3]; 24 h
  Average result: 2.7 × 10^5
  Log Reduction: No
  Log Value: 5.4
[3]; 72 h
  Average result: 1.9 × 10^5
  Log Reduction: No
  Log Value: 5.3
[4]; 24 h
  Average result: <200
  Log Reduction: >2.5
  Log Value: <2.3
[4]; 72 h
  Average result: <200
  Log Reduction: >2.5
  Log Value: <2.3
[5]; 24 h
  Average result: <200
  Log Reduction: >2.9
  Log Value: <2.3
[5]; 72 h
  Average result: <200
  Log Reduction: >2.9
  Log Value: <2.3
[6]; 24 h
  Average result: <200
  Log Reduction: >2.5
  Log Value: <2.3
[6]; 72 h
  Average result: <200
  Log Reduction: >2.5
  Log Value: <2.3
[7]; 24 h
  Average result: <200
  Log Reduction: >3.6
  Log Value: <2.3
[7]; 72 h
  Average result: <200
  Log Reduction: >3.6
  Log Value: <2.3
[8]; 24 h
  Average result: 1.5 × 10^3
  Log Reduction: 1.6
  Log Value: 3.2
[8]; 72 h
  Average result: <200
  Log Reduction: >2.5
  Log Value: <2.3
[9]; 24 h
  Average result: 4.7 × 10^4
  Log Reduction: 0.5
  Log Value: 4.7
[9]; 72 h
  Average result: 9.3 × 10^2
  Log Reduction: 2.2
  Log Value: 3.0
[10]; 24 h
  Average result: <200
  Log Reduction: >2.8
  Log Value: <2.3
[10]; 72 h
  Average result: <200
  Log Reduction: >2.8
  Log Value: <2.3
[11]; 24 h
  Average result: <200
  Log Reduction: >3.2
  Log Value: <2.3
[11]; 72 h
  Average result: <200
  Log Reduction: >3.2
  Log Value: <2.3

## O=c1[nH]c(-c2ccc(B(O)O)cc2)nc2c1CSCC2 [Compound 1, (4-(4-oxo-3,5,7,8-tetrahydro-4H-thiopyrano[4,3-d]pyrimidin-2-yl)phenyl)boronic acid]
[1]; 24 h
  Average result: <200
  Log Reduction: >3.1
  Log Value: <2.3
[1]; 72 h
  Average result: <200
  Log Reduction: >3.1
  Log Value: <2.3
[2]; 24 h
  Average result: 5.5 × 10^3
  Log Reduction: 0.5
  Log Value: 3.7
[2]; 72 h
  Average result: <200
  Log Reduction: >1.9
  Log Value: <2.3
[3]; 24 h
  Average result: 1.1 × 10^3
  Log Reduction: 1.8
  Log Value: 3.0
[3]; 72 h
  Average result: 1.1 × 10^4
  Log Reduction: 0.7
  Log Value: 4.1
[4]; 24 h
  Average result: 1.1 × 10^3
  Log Reduction: 1.8
  Log Value: 3.0
[4]; 72 h
  Average result: <200
  Log Reduction: >2.5
  Log Value: <2.3
[5]; 24 h
  Average result: <200
  Log Reduction: >3.1
  Log Value: <2.3
[5]; 72 h
  Average result: <200
  Log Reduction: >3.1
  Log Value: <2.3
[6]; 24 h
  Average result: <200
  Log Reduction: >3.0
  Log Value: <2.3
[6]; 72 h
  Average result: <200
  Log Reduction: >3.0
  Log Value: <2.3
[7]; 24 h
  Average result: <200
  Log Reduction: >3.6
  Log Value: <2.3
[7]; 72 h
  Average result: <200
  Log Reduction: >3.6
  Log Value: <2.3
[8]; 72 h, test 1
  effect on MRSA growth: did not affect MRSA growth
[8]; 24 h
  Average result: 9.3 × 10^3
  Log Reduction: 0.6
  Log Value: 4.0
[8]; 72 h
  Average result: 4.0 × 10^4
  Log Reduction: No
  Log Value: 4.6
[9]; 24 h
  Average result: 8.7 × 10^4
  Log Reduction: 0.4
  Log Value: 4.9
[9]; 72 h
  Average result: <800
  Log Reduction: >2.4
  Log Value: <2.9
[10]; 24 h
  Average result: <200
  Log Reduction: >2.8
  Log Value: <2.3
[10]; 72 h
  Average result: <200
  Log Reduction: >2.8
  Log Value: <2.3
[11]; 24 h
  Average result: <200
  Log Reduction: >3.2
  Log Value: <2.3
[11]; 72 h
  Average result: <200
  Log Reduction: >3.2
  Log Value: <2.3
